Test results published in patent US20190311703A1, “ACOUSTIC TRAUMA SYSTEM FOR LARVAL FISH” (WASHINGTON STATE UNIVERSITY, priority 2018, published 2019).
Entries after “also recorded” stand apart in the source; their conditions may differ. Where two headings read alike, the source gives them in different places. Where a SMILES comes first, the peptide text is derived from it. The star is where a group is joined. Cbz = O=C(OCc1ccccc1)*; CH2F = FC*

Tests used:
lateral line hair cells = assay: Cavitation (acoustic trauma)-induced lateral line hair cell damage in larval zebrafish, hair cell survival assessment; format: in vivo; settings: for protection from cavitation-induced hair cell damage (hair cell survival score vs DMSO control): blinded mini-screen of select redox library compounds, FIG. 12B
Description: At 5 days post-fertilization (dpf), fish were fed a light dusting of GEMMA micro 75 while in petri dishes. All noise exposure experiments were conducted at 6 dpf. Larval zebrafish were placed into wells A2-A5 and D2-D5 of a modified 24-well plate (3 fish per well) containing fish water and suspended atop 22 cm of water within the container 2 (stainless-steel canister) with the bottom of the 1 cm of the well plate 5 submerged (as generally shown in FIG. 1). While the well plate is disclosed often with the bottom of the plate being submerged, it is also to be understood that the entire well plate may be submerged without departing from the scope of the invention. Fish were exposed to cavitation for periods ranging from 20 to 120 minutes.
Immediately following cavitation fish were transferred to a 6-well plate 5 (6 fish per well) and kept in the fish facility on a 14 h light/10 h dark cycle for up to 5 post-exposure days. Each post-exposure morning (9-10 am) 50% of fish water was exchanged with fresh fish water and fish were lightly dusted with GEMMA food. Each post-exposure day evening (5-6 pm) fish were transferred to a fresh 6-well plate with completely fresh fish water.
Survival of lateral line hair cells was assessed by vital dye labeling in live fish and direct hair cells counts in live and fixed animals. The vital dye 2-(4-(dimethylamino)styryl)-N-ethylpyridinium iodide (DASPEI) is a marker of mitochondria membrane potential and stains lateral line hair cells. Fish were incubated in 0.005% DASPEI for 15 min, then rinsed twice with fish water and anesthetized with 0.001% MS-222. Using a Leica M165FC fluorescence dissection scope, 10 anterior neuromasts (IO1, IO2, IO3, IO4, M2, MI1, MI2, O2, SO1, and SO2) per fish were assessed based on fluorescent intensity. An intensity score of 2 signifies bright neuromast fluorescence, an intermediate score of 1 represents dim DASPEI labeling, while a 0 neuromast score equates to no neuromast fluorescence at a given neuromast's stereotyped position. The scores from 10 neuromasts per fish were summed such that each fish receives a score between 0 (no neuromast fluorescence) and 20 (full complement of hair cells in all 10 neuromasts).
All inhibitors (to test roles of cell death (including apoptosis, pyroptosis and necroptosis) and inflammation, were added to 6-well plates immediately after cavitation-exposed fish were removed from the device. Inhibitors were refreshed during the same intervals as fish water (twice daily) until the end of the desired exposure window. To test the role of protein synthesis, fish were pulse treated immediately after acoustic trauma for 4 h with the protein synthesis inhibitor cycloheximide (C7698; Sigma Aldrich). In separate experiments, acoustic trauma-exposed fish were continuously treated with either the pan caspase inhibitor Z-VAD-FMK ([…]; Sigma Aldrich) or the antioxidant D-methionine (F7111; UBPBio) to assess the contribution of caspase activation and ROS overproduction, respectively, in the acoustically stimulated lateral line. A small blinded screen was also conducted of select compounds from a larger redox library (BML-2835-0100; Enzo Life Sciences). Compounds chosen had either known protective effects in mammalian models of NIHL (as proof-of concept) or had not been previously tested against NIHL (to identify new protective molecules).

cochlear hair cells [1] = settings: guinea pigs; cited from earlier work
cochlear hair cells [2] = settings: mice; cited from earlier work
hair cells = settings: intracochlear perfusion, guinea pigs; cited from earlier work
[3] = cited from earlier work

In the case of O=c1cc(-c2ccccc2)oc2cc(O)c(O)c(O)c12 [baicalein], the “protection from cavitation-induced hair cell damage (hair cell survival score vs DMSO control)” value (lateral line hair cells) is reported as “significantly protected lateral line hair cells from cavitation-induced hair cell damage”.
For CSCC[C@@H](N)C(=O)O [D-methionine], the “protection from cavitation-induced hair cell damage (hair cell survival)” value (“protection … (hair cell survival)” below) (lateral line hair cells; 100 μM, FIG. 12A) was “protected lateral line hair cells from cavitation damage”, the “protection … (hair cell survival)” value (lateral line hair cells; 500 μM, FIG. 12A) was “protected lateral line hair cells from cavitation damage” and the “protection … (hair cell survival)” value (lateral line hair cells; 72 hour treatment, concentration not stated at place, FIG. 12A) was “protects lateral line hair cells from cavitation”. The “protection … (hair cell survival)” value (lateral line hair cells; 72 hour treatment, concentration not stated at place, FIG. 12A, listed as D-Methionine) was “robustly protects lateral line hair cells from cavitation”, the “protection of cochlear hair cells from acoustic trauma” value (cochlear hair cells [1]) was “protects cochlear hair cells” and the “protection of cochlear hair cells from acoustic trauma” value (cochlear hair cells [2]) was “protects cochlear hair cells”.
In the case of COC(=O)C[C@H](NC(=O)[C@H](C)NC(=O)[C@@H](NC(=O)OCc1ccccc1)C(C)C)C(=O)CF [Z-VAD, Z-VAD-FMK] (Cbz-Val-Ala-Asp(OMe)-CH2F), the “protection … (hair cell survival)” value (lateral line hair cells; 1 μM, treatment for entire 72-hour post-exposure window, FIG. 11B) is listed as “significantly reduced cavitation-induced hair cell damage”, the “protection … (hair cell survival)” value (lateral line hair cells; 72-h treatment starting immediately after acoustic stimulation, concentration not stated, FIG. 11B) is listed as “reduced cavitation-induced lateral line hair cell damage; also recorded: robustly protects hair cells from damage” and the “hair cell loss following blast noise trauma” value (hair cells) is listed as “reduces hair cell loss”.
In the case of CC(=O)N[C@@H](CS)C(=O)O [N-acetylcysteine], the “prevention of NIHL, clinical trial outcome” value [3] is given as “failed to meet clinical endpoints”.
In the case of C[C@@H]1C[C@@H]([C@H](O)CC2CC(=O)NC(=O)C2)C(=O)[C@@H](C)C1 [cycloheximide], the “protection … (hair cell survival)” value (lateral line hair cells; 4 h pulse treatment immediately after acoustic stimulation, assessed 72 h post-exposure, FIG. 11A) is reported as “prevented hair cell loss; also recorded: reduces hair cell damage” and the “protection … (hair cell survival)” value (lateral line hair cells; 4 h pulse treatment immediately after acoustic stimulation, assessed 72 h post-exposure, FIG. 11A, listed as Cycloheximide) is reported as “protected lateral line hair cells from cavitation in a dose-dependent manner”.
For CCOC(=O)/C=C/c1ccc(O)c(OC)c1 [ferulic acid ethylester], the “protection from cavitation-induced hair cell damage (hair cell survival score vs DMSO control)” value (lateral line hair cells) was “significantly protected lateral line hair cells from cavitation-induced hair cell damage”.
With CC1=C(C)C(=O)C(CC[C@](C)(O)CCC[C@H](C)CCC[C@H](C)CCCC(C)C)=C(C)C1=O [d-α-tocopherylquinone] the “protection from cavitation-induced hair cell damage (hair cell survival score vs DMSO control)” value (lateral line hair cells) was “significantly protected lateral line hair cells from cavitation-induced hair cell damage”.
With N[C@@H](CCC(=O)N[C@@H](CS)C(=O)NCC(=O)O)C(=O)O [glutathione] the “protection from cavitation-induced hair cell damage (hair cell survival score vs DMSO control)” value (lateral line hair cells) was “significantly protected lateral line hair cells from cavitation-induced hair cell damage”.
With CCCCS(=N)(=O)CCC(N)C(=O)O (centres unmarked) [buthionine sulfoximine] the “protection from cavitation-induced hair cell damage (hair cell survival score vs DMSO control)” value (lateral line hair cells) was “did not confer protection”.
